Peptide text beside a SMILES is read from it. * marks the point of attachment. Cbz = O=C(OCc1ccccc1)*
Columns and labels:
[1] = test system: Luc-SMNΔ7; experiment: Luc-SMNΔ7 degradation with proteolysis inhibitors in the presence of CHX; format: cell-based, human; settings: for effect on decrease in Luc-SMNΔ7 signal: 5 hours in the presence of CHX
Procedure: FIG. 5 is a graph depicting the effect of proteasome inhibitors on inhibiting SMNΔ7 degradation. Luciferase activity is measured after application of proteasome inhibitors (MG132 and Lactacystin), the calpain inhibitor (Calpeptin), the autophagy inhibitor (3-methyladenine; 3-MA), and the lysosomal inhibitor (ammonium chloride; NH4Cl) in the presence of CHX for 5 hours. Error bars represent SDs from three independent experiments.
(§1) Cells (293T cells) were transfected with plasmids expressing various constructs including Luc-SMN, Luc-SMNΔ7, GFP-YG+EMLA or GFP-NS. Forty-eight hours after transfection, the cells were treated with CHX (0.1 mg/ml) for various times as indicated and then assayed for luciferase activity. Luciferase activity at each time point was calculated by comparison to those at time 0, which was set to 100%. Luciferase activities were measured using One-Glo reagent (Promega).
SMN was previously shown to be degraded by the proteasome (Burnett et al., 2009, Mol Cell Biol 29(5):1107-15; Chang et al., 2004, Neurochem. Int. 45(7):1107-12). To determine if SMNΔ7 is also degraded by this system, cells expressing Luc-SMNΔ7 were treated with proteasome inhibitors including MG132 and Lactaeystin, for 5 hours in the presence of CHX. […] Inhibitors of other proteolytic activities, such as lysosomal proteases, autophagy, and calpain (N1-14Cl, 3-methyladenine, and calpeptin, respectively) had no effect.

[2] = test system: SMNΔ7; experiment: MG132 effect on amount of HA-tagged SMNΔ7 (Western blot); format: cell-based, human; settings: 10 μM MG132, 16 hours, 293T cells
Procedure: (§2) FIG. 3, comprising FIG. 3A through FIG. 3D, is a series of images depicting the importance of residue S270 for the activity of the SMNΔ7-DEG through YG+EMLA. FIG. 3A is a schematic illustration depicting seven residues in the YG box that were each mutated to alanine, as indicated. […] depicts the results of Western blot analyses using an anti-HA tag antibody directed against HA-tagged SMN, SMNΔ7, and SMNΔ7^S270A expressed in 293T cells treated with DMSO or 10 μM MG132 (MG) for 16 hours. Fusion proteins were monitored by, and Magoh was used as a control. FIG. 3C is a graph depicting the quantification of HA-tagged proteins depicted in FIG. 3B and compared to HA-SMN without MG132 treatment. Protein amount (%) for SMNΔ7, and SMNΔ7^S270A are calculated relative to HA-SMN not treated with MG132, that is arbitrarily set to 100%. The fold change of each fusion protein amount upon MG132 treatment is indicated in red above the column. […]
(§3) To identify specific residues in the SMN07-DEG that are important for its activity, mutagenesis of the YG box was performed wherein every second residue was converted to alanine in the context of full-length SMNΔ7 and determined the half-life of each in 293T cells. […] The levels of the tagged SMN proteins were then monitored by Western blots using anti-HA antibody (FIG. 3B).

[3] = test system: SMN; experiment: MG132 effect on amount of HA-tagged SMN (Western blot); format: cell-based, human; settings: 10 μM MG132, 16 hours, 293T cells
Procedure: as §2, §3

[4] = test system: SMNΔ7^S270A; experiment: MG132 effect on amount of HA-tagged SMNΔ7^S270A (Western blot); format: cell-based, human; settings: 10 μM MG132, 16 hours, 293T cells
Procedure: as §2, §3

[5] = test system: 293T cells; experiment: Protein stability assay: luciferase activity of Luc-fused constructs after CHX treatment; format: cell-based
From the text: To construct plasmids expressing Luc-fused proteins, the luciferase gene was cloned into pcDNA3.1 vector at HindIII/KpnI sites, then DNA fragments encoding full-length wild type human SMN, SMNΔ7, several deletion mutants of SMNΔ7, and optiPEST were inserted into the KpnI/XhoI sites. SMNΔ7 mutants with single amino acid change were generated by mutating residues in YG+EMLA to alanine by Quickchange site-directed mutagenesis kit (Stratagene).
as §1
A reporter system that recapitulates the differential stability of full-length SMN and SMNΔ7 and allows quantitative assessment of SMNΔ7's instability determinants was developed. […] Forty-eight hours after transfection, cells were treated with the protein synthesis inhibitor cycloheximide (CHX), and luciferase activity was measured at time intervals of up to 10 hours. […]

[6] = test system: S5 cells; experiment: Rescue of S5 cell viability after tetracycline depletion of SMN; format: cell-based, chicken; settings: retroviral expression, one week after tetracycline (1 μg/ml)
Procedure: FIG. 4, comprising FIG. 4A through FIG. 4D, is a series of images depicting the functionality of SMNΔ7^S270A in snRNP assembly and its ability to rescue SMN-deficient cells. FIG. 4 A is a series of panels depicting S5 cells cultured in the presence of tetracycline (1 μg/ml) to deplete endogenous SMN and infected with retroviruses expressing SMN, SMNΔ7, or SMNΔ7^S270A. FIG. 4B is a graph depicting cell growth as in FIG. 4A measured by monitoring the number of live cells at the indicated time points following tetracycline addition. FIG. 4C depicts the results of Western blot analyses of SMN protein in rescued cells (10 days after tetracycline addition). FIG. 4D is a graph depicting SMN complex activity (%) as measured by in vitro snRNP assembly on U4 snRNA in cytoplasmic extracts from rescued cells, using U4ΔSm RNA as a control.
S5 cells were maintained and infected with retroviruses expressing SMN, SMNΔ7, and SMNΔ7^S270A as described (Wang et al., 2001, J. Biol. Chem. 276:9599).
To determine whether SMNΔ7^S270A is a functional SMN protein, a previously established cell system, the S5 cell line, was used to investigate if SMNΔ7^S270A could rescue the viability of SMN-depleted cells. […]

## Cn1cnc(N)c2ncnc1-2 [3-methyladenine]
[1]
  effect on decrease in Luc-SMNΔ7 signal: no effect

## C[C@@H]1C[C@@H]([C@H](O)CC2CC(=O)NC(=O)C2)C(=O)[C@@H](C)C1 [CHX, cycloheximide]
[1]; CHX alone, 5 hours, cells expressing Luc-SMNΔ7
  decrease in signal (luciferase): 60%

## CC(=O)N[C@@H](CSC(=O)[C@]1([C@@H](O)C(C)C)NC(=O)[C@H](C)[C@@H]1O)C(=O)O [Lactacystin]
[1]
  effect on decrease in Luc-SMNΔ7 signal: much smaller decrease

## CC(C)C[C@@H](C=O)NC(=O)[C@H](CC(C)C)NC(=O)[C@H](CC(C)C)NC(=O)OCc1ccccc1 [MG132] (Cbz-Leu-Leu-Leu-aldehyde)
[1]
  effect on decrease in Luc-SMNΔ7 signal: much smaller decrease
[2]
  increase in the amount of SMNΔ7: 3.4 fold
[3]
  effect on the amount of SMN: only a moderate effect
[4]
  effect on the amount of SMNΔ7^S270A: only a moderate effect

## Cl.N [N1-14Cl, ammonium chloride]
[1]
  effect on decrease in Luc-SMNΔ7 signal: no effect

## CCCC[C@@H](C=O)NC(=O)[C@H](CC(C)C)NC(=O)OCc1ccccc1 [calpeptin]
[1]
  effect on decrease in Luc-SMNΔ7 signal: no effect

## SMN: full-length wild type human survival of motor neurons protein, tested as Luc- or HA-fusion or retrovirally expressed
[5]; Luc fusion in 293T cells, CHX 0.1 mg/ml, up to 10 hours
  half-life (t1/2): > 8 h
[5]; after 10 hours of CHX chase
  amount of SMN relative to SMNΔ7: 3 times
[6]
  rescue of viability of SMN-depleted S5 cells: rescued the viability of S5 cells
